Test results: US6545041B2, “Tumor necrosis factor alpha (TNF-α) inhibiting pharmaceuticals” (Yessum Research Development Co. of the Hebrew University of …, priority 1995, dated 2003)
“And” between values parts separate entries of the source, which are not always exact repeats. Equal entries are not always repeated. “Also recorded” adds a separate entry of the source.

Columns and labels:
[1] = cited from earlier work
LPS treated mice = assay: Survival of LPS treated mice; assay type: in vivo, BALB/c male mice; conditions: for survival rate / mortality: 24 hours
Method: The effect of HU-211 on the survival of mice, in response to administration of LPS was assessed. The survival was followed up to 48 hr.
Animals are administered with either HU-211 at a dose of 10 mg/kg i.p. or vehicle alone (10 ml/kg i.p.), and 30 minutes later with LPS IV. Two dose levels of LPS were tested in the present study: 10 and 15 mg/kg.
Mortality rate was recorded once a day for 2 days.

[2] = system: D-galactosamine (D-GALN)-sensitized mice; assay: Lethal toxicity by LPS in D-galactosamine-sensitized mice (endotoxic shock); assay type: in vivo, mice (C57BL/6); conditions: for lethality in HU-211 treated group dead/total: LPS 10 ng/mouse + D-GALN, HU-211 7.5 mg/kg plus 8 hourly injections, 24 hrs, exp. no 1-3 and total, controls 20/20, 7.5 mg/kg
Method: The effect of HU-211 in endotoxic shock was assessed in a model of lethal toxicity by lipopolysacharide (LPS) in D-galactosamine (D-GALN)-sensitized mice (Galanos et al. PNAS 76: 5739, 1979, Lehman et al. J. Exp. Med. 165: 657, 1987). In this model 100% mortality occurs within 6-8 hrs of administration of the combined treatment.
LPS (10 ng/mouse) and D-GALN ([…]) were coadministered to 20 mice (C57BL/6). Half of the mice served as controls, and the other were treated within 5 min of injection with HU-211 (7.5 mg/kg body weight), followed by 8 additional injections every hour. The survival was followed up to 24 hrs, and the results of this experiment are depicted in Table 1.

[3] = Phase I clinical trials, intravenous, healthy human volunteers; assay type: in vivo; conditions: dose ranges contemplated for humans
[4] = doses far exceeding those contemplated for repression of cytokines; cited from earlier work
TNF [5] = conditions: rats, 48 hours after HT; cited from earlier work
[6] = Solubility in water / aqueous solutions; assay type: physicochemical
Description: Among the novel compounds tested, monoesters including nicotinate, succinate and maleate are preferred. Most preferred compounds include the glycinate ester and N-substituted glycinate ester salts, such as the trimethyl- and triethylammonium acetate derivatives of HU-211. These novel compounds have the added advantage of being soluble in some aqueous solutions, whereas the parent compounds are extremely hydrophobic.
(§1) This makes the development of formulations suitable for intravenous administration of HU-211 difficult, hampering its clinical application. Water-soluble derivatives of HU-211 designed to readily release the drug by hydrolysis following i.v. administration might overcome this problem and will be used as prodrugs.

LPS treated rats = assay: LPS-induced hypotension and hematocrit in rats; assay type: in vivo, Sprague Dawley rats
Method: A prominent manifestation of endotoxemia is hypotension, and the effect of a drug on mean arterial blood pressure (MABP) indicates its potency as an anti-endotoxic shock agent. The protective effect of a test compound is evaluated in rats treated with LPS, in which the blood pressure and other vital signs are monitored up to 4 hrs after induction of endotoxemia.
Rats were individually anesthetized with halothane in 70% nitrogen, 30% oxygen. The right femoral artery was catheterized using polyethylene tubes (PE-50, Clay Adams, USA), and connected to a computerized physiograph through a pressure transducer (XTT Vigo, USA). The animals are then connected via a rectal probe to the above physiological recorder. Rectal temperature is kept throughout the study between 37° C. and 38° C., using a heating lamp. Following 10-15 minutes of baseline recording, animals are intravenously administered an injection of saline, vehicle alone or HU-211 at a dose of 4 mg/kg. As soon as possible after completion of the first injection (2-5 minutes later) they are administered an intravenous injection of LPS at a dose of 15 mg/kg (in a volume of 3 ml/kg). Blood pressure and heart rate are recorded for the following 4 hrs. The hematocrit is measured and recorded just prior to drug administration, and 1, 2, and 3 hours later. At the end of the follow up period, animals are sacrificed by deep anesthesia with halothane.

TNF [7] = assay: Serum TNF activity (bioassay) and levels (ELISA) in LPS treated mice; assay type: in vivo, mice (C57BL/6); conditions: 100 μg LPS ip with 200 μg/mouse compound, 90 min
Method: An early response to LPS administration is the elevation of serum levels of TNF, which peaks at 1.5-2 hr after LPS administration. Mice treated with LPS serve as a model for the effect of drugs on reducing TNF levels under these conditions.
Serum levels of TNF peak within 1.5 hr following LPS administration, and at this time point, we assessed both TNF activity and levels in the serum.
Mice (C57BL/6) were injected ip with 100 μg LPS, concomitantly with HU-211, HU-210, or HU-245 (200 μg/mouse), and 90 min later they were bled, the sera separated and TNF was assayed for its activity (bioassay) and levels (using ELISA kit).

EAE = assay: Experimental autoimmune encephalomyelitis (EAE) in Lewis rats; assay type: in vivo; conditions: single iv injection day 10 to 18 post induction, FIG. 6
Description: Autoimmune diseases are associated with elevated levels of TNF. The models which are most conveniently studied are experimental allergic encephalomyelitis (EAE) and experimental autoimmune arthritis in rodents. EAE is an autoimmune neurological disease elicited by sensitization of the animals to myelin basic protein from the central nervous system, which is also known as basic encephalitogenic protein. EAE is considered by many to represent a model of the human disease multiple sclerosis. Experimental autoimmune arthritis is induced in animals by immunization with collagen in complete Freund's adjuvant. The ability of compounds of the general formula I to prevent or attenuate the clinical symptoms of these autoimmune diseases was tested.
The Lewis rats used were 8 week old females (from OLAC, England). The animals (5 per cage) were maintained on a 12 hour light/12 hour dark regimen, at a constant temperature of 22° C., with food and water ad libitum. EAE was induced in these animals by immunization with purified guinea pig myelin basic protein emulsified in complete Freund's adjuvant. Guinea pig myelin basic protein (mbp) was prepared from spinal cord homogenates defatted with chloroform/ethanol and the isolated protein was purified using ion exchange chromatography. Each animal received 50 micrograms of the purified protein. […]

TNF [8] = assay: Closed head injury (head trauma) model in rats: TNF, edema, clinical outcome; assay type: in vivo, rat; conditions: FIG. 4
Description: Closed head injury is associated with high mortality and morbidity. It induces edema formation, blood-brain-barrier (BBB) disruption, neuronal cell death and impairment of motor and cognitive functions. Animals subjected to head trauma in a controlled fashion serve as models in which to test drugs of therapeutic potential. Test compounds can be evaluated both for improved clinical outcome and for reduction of edema induced by closed head injury. The ability of compounds to reduce the severity of neurological symptoms and to reduce brain edema is considered a measure of their potency in reducing brain damage.
The effect of HU-211 on TNF production was assessed in a model of head trauma (HT) in rats. Injury was induced in anesthetized rats by a weight-drop device followed by a recovery period of up to 30 days. This type of trauma produces brain edema (i.e. increase in water content, decrease in specific gravity in the brain), breakdown of the blood brain barrier (BBB), clinical and cognitive dysfunction. […]
In this experiment we compared the effects of two agents: 1) pentoxyfilline (PTX), a methylxanthine known for its ability to prevent or attenuate the LPS-induced release of TNF both in vitro and in vivo. […] The levels of TNF were measured after CHI in order to determine whether the beneficial effect of HU-211 is also associated with suppression of TNF production or activity.

[9] = Passage of the blood-brain barrier
Description: as §1

[10] = system: collagen induced arthritis; assay: Collagen type 2 induced arthritis; assay type: in vivo, CD-1 male mice; conditions: HU-211 20 mg/kg i.p. daily or every 3 days; p<0.01
Method: CD-1 male mice (27-33 gr.), five in each treatment group (supplied by Harlan Israel) were used in the present study. Each animal was administered with collagen type 2 (Sigma, batch no. 111H7180) 100 μg/ml in 0.1 ml complete Freund's adjuvant (Sigma batch no. 084H8800). The collagen was administered s.c. into the base of the tail. The volume of each hind paw was measured using a plathysmometer (Hugo Basill, Italy) before collagen administration and on days 1, 4, 7, 10, 13 and 16 of treatment (30 minutes after drug treatment).
Five treatment groups were tested in the present study: vehicle (blank cosolvent) 10 ml/kg once daily, HU-211 10 mg/kg every three days, HU-211 20 mg/kg once daily, HU-211 20 mg/kg every 3 days and diclofenac 10 mg/kg (10 ml/kg) every 3 days. All treatments were administered intraperitoneally. HU-211 was used from a 5% preparation in cosolvent (Pharmos batch no. PRN-C-08623041), by diluting with saline (B. Braun batch no. 3431A41A) 1:25. The same procedure was performed with blank cosolvent (Pharmos batch no. 608945). Diclofenac was prepared in Pharmos, batch no. LG-121\70 1 mg/ml. At the same time paws were measured they were clinically evaluated according to the following method (Williams R. O., Proc. Natl. Acad. Sci. USA: 89:9784-9788): 0—normal, 1—slight swelling and erythema, 2—pronounced edematous swelling and 3—joint rigidity. […]

For `CCCCCCC(C)(C)c1cc(O)c2c(c1)OC(C)(C)C1CC=C(CO)CC21` (stereo not shown) [HU-210, 7-hydroxy-Δ^6-tetrahydrocannabinol 1,1-dimethylheptyl homologue, reference compound], the “cannabimimetic activity relative to Δ-1-tetrahydrocannabinol” value ([1]; in vivo) is listed as roughly 100 times.
With `CCCCCCC(C)(C)c1cc(O)c2c(c1)OC(C)(C)[C@H]1CC=C(CO)C[C@H]21` [HU-211, (+)-(3S,4S)-1,1-dimethylheptyl homologue of 7-hydroxy-Δ^6-tetrahydrocannabinol] the survival rate (LPS treated mice; LPS 10 mg/kg iv, HU-211 10 mg/kg i.p., vehicle 43%) was 91%, the mortality (LPS treated mice; LPS 10 mg/kg iv, HU-211 10 mg/kg i.p., vehicle 57%) was 9% and the survival (LPS treated mice; LPS 10 mg/kg iv, HU-211 10 mg/kg i.p., 48 hours, vehicle none survived) was 33%. For the same molecule, the survival (LPS treated mice; LPS 10 mg/kg iv, HU-211 10 mg/kg i.p., 72 hours post LPS) was “None of the animals survived”, the mortality (LPS treated mice; LPS 15 mg/kg iv, HU-211 10 mg/kg i.p. 30 min before, vehicle 67%) was 33% and the survival rate (LPS treated mice; LPS 15 mg/kg iv, HU-211 10 mg/kg i.p., vehicle 33%) was 67%. The survival (LPS treated mice; LPS 15 mg/kg iv, HU-211 10 mg/kg i.p., 48 hours) was “none of the animals survived”, the “lethality in HU-211 treated group dead/total” value [2] was 1/5 and 1/10 and 0/5 and the “lethality in HU-211 treated group dead/total” value ([2]; pooled total of all experiments) was 2/20. For the same molecule, the survival ([2]; LPS + D-GALN mice, HU-211 7.5 mg/kg, total of experiments, controls 0%) was 90%, the toxicity or psychoactivity [3] was “no evidence of toxicity or psychoactivity” and the “stereotypy and locomotor hyperactivity” value [4] was “induction of stereotypy and locomotor hyperactivity”. For the same molecule, the “edema and clinical outcome after head trauma” value (TNF [5]) was “reduced edema and improved the clinical outcome”, the “solubility in water / aqueous solutions” value [6] was “very poor solubility in water” and the “time post-LPS at which normotension was regained” value (LPS treated rats; HU-211 treated rats) was no more than 30 min. The “duration of transient hypotension” value (LPS treated rats; HU-211 treated rats, evident 10 minutes after LPS) was 5 to 10 min, the “LPS-induced increase in hematocrit” value (LPS treated rats; rats, HU-211 iv 2-3 minutes before LPS, LPS alone about 10% increase) was “prevented” and the “LPS-induced drop in mean arterial blood pressure (MABP)” value (LPS treated rats; rats, LPS 15 mg/kg iv, HU-211 4 mg/kg iv pre-administration, LPS alone around 30% reduction) was “abolished”. The “TNF levels in serum (ELISA)” value (TNF [7]) was “significantly reduced; also recorded: attenuated the LPS-induced production and action of TNF to a very pronounced extent”, the “TNF activity (S50) in serum, bioassay” value (TNF [7]; LPS control 1233±237) was “significantly reduced; also recorded: attenuated the LPS-induced production and action of TNF to a very pronounced extent” and the mean clinical score (EAE) was “diminution of mean clinical score”. The “brain levels of TNF after CHI, compared with pentoxyfilline” value (TNF [8]) was “significantly superior to that of pentoxyfilline”, the “brain tissue water content (anti-edema effect) after CHI, compared with pentoxyfilline” value (TNF [8]) was “significantly superior to that of pentoxyfilline” and the “passage of the blood-brain barrier” value [9] was “readily passes the blood-brain barrier”. For the same molecule, the cannabimimetic activity ([1]; doses several thousand times higher than the ED50 of HU-210) was “inactive as a cannabimimetic” and the “clinical signs of arthritis (swelling of the paws)” value [10] was “lowest number of these signs”.
With `CCCCCCC(C)(C)c1cc(O)c2c(c1)OC(C)(C)C1CC=C(C(=O)O)CC21` (stereo not shown) [HU-245] the “TNF levels in serum (ELISA)” value (TNF [7]) was “significantly reduced”.
